According to patent US9737073B2, “Herbicidal weed control from combinations of fluroxypyr and ALS inhibitors” (Dow AgroSciences LLC, priority 2014, dated 2017):
“And” between values parts separate entries of the source, which are not always exact repeats. Identical values can stand only once.

Experiments:
Type in all cases: in vivo
[1] = test system: Sida cordifolia L. (heartleaf sida, SIDCO); experiment: Postemergence herbicidal weed control, fluroxypyr-meptyl and diclosulam, greenhouse trials (Table 1); conditions: 14DAA1, 200 g ae/ha
Procedure: (§1) Seeds of the desired test plant species were planted in a peat-based potting soil, Metro-Mix 360® in plastic pots with a surface area of 128 square centimeters (cm^2). Metro-Mix 360® consists of formulated Canadian sphagnum peat moss, coarse perlite, bark ash, a starter nutrient charge (with gypsum), a slow-release nitrogen and dolomitic limestone. The plants were grown for 7-19 days in a greenhouse with an approximate 14-hour (h) photoperiod which was maintained at about 29° C. during the day and 26° C. during the night. Nutrients and water were added on a regular basis and supplemental lighting was provided with overhead metal halide 1000-Watt lamps as necessary. The plants were treated with postemergence foliar applications when they reached the third to fourth true leaf stage. All treatments were applied using a randomized complete block trial design, with 4 replications per treatment.
Treatments consisted of the compounds as listed in Tables 1 to 4, each compound applied alone and in combination. […]
Treatments were rated at 7 to 21 days after application (DAA) as compared to the untreated control plants. Visual weed control was scored on a scale of 0 to 100 percent where 0 corresponds to no injury and 100 corresponds to complete kill. […]

[2] = test system: Abutilon theophrasti (velvetleaf, ABUTH); experiment: as above
Procedure: as §1
(§2) Treatments consisted of the compounds as listed in Tables 1 to 4, each compound applied alone and in combination. Commercially formulated products of fluroxypyr-meptyl (STARANE™, 333 grams acid equivalent per liter (g ae/L) EC), diclosulam (SPIDER® 84WG), cloransulam-methyl (FIRSTRATE™ 84WG), chlorimuron-ethyl (CLASSIC® 25WG) and thifensulfuron-methyl (HARMONY® 50SG). Formulated amounts of fluroxypyr-meptyl, diclosulam, cloransulam-methyl, chlorimuron-ethyl and thifensulfuron-methyl were placed in 60 milliliter (mL) glass vials and dissolved in a volume of 30 or 60 mL of a water solution containing Agri-dex crop oil concentrate in a 1% volume per volume (v/v) ratio. Compound requirements are based upon either a 30- or a 60-mL application volume at a rate of 200 liters per hectare (L/ha). Spray solutions of the mixtures were prepared by adding the stock solutions to the appropriate amount of dilution solution to form either a 30- or a 60-mL spray solution with active ingredients in single and two-way combinations. Formulated compounds were applied to the plant material with an overhead Generation III Research Sprayer manufactured by DeVries Manufacturing in Hollandale, Minn., USA. The track sprayer was equipped with an 8003E nozzle calibrated to deliver 200 L/ha at a spray height of 18 inches (43 centimeters (cm)) above average plant canopy.
(§3) The treated plants and untreated control plants were placed in a greenhouse as described above and watered by sub-irrigation to prevent wash-off of the test compounds.
(§4) Treatments were rated at 7 to 21 days after application (DAA) as compared to the untreated control plants. Visual weed control was scored on a scale of 0 to 100 percent where 0 corresponds to no injury and 100 corresponds to complete kill.
(§5) Colby's equation was used to determine the herbicidal effects expected from the mixtures (Colby, S. R. Calculation of the synergistic and antagonistic response of herbicide combinations. Weeds 196715, 20-22). A t-test (alpha=0.05) between Colby predictions and observed combinations was used to test for significant differences indicating synergy or antagonism. The results presented in the Tables were significant according to the described criteria.
(§6) The following equation was used to calculate the expected activity of mixtures containing two active ingredients, A and B: Expected=A+B−(A×B/100) • A=observed efficacy of active ingredient A at the same concentration as used in the mixture; • B=observed efficacy of active ingredient B at the same concentration as used in the mixture.

[3] = test system: Amaranthus rudis Sauer (common waterhemp, AMATA); experiment: as above
Procedure: as §1, §2, §3, §4, §5, §6

[4] = test system: Chenopodium album (common lambsquarters, CHEAL); experiment: as above
Procedure: as §1, §2, §3, §4, §5, §6

[5] = test system: Amaranthus palmeri S. Wats. (Palmer amaranth, AMAPA); experiment: Postemergence herbicidal weed control, fluroxypyr-meptyl and thifensulfuron-methyl, field trials (Table 4); conditions: 7DAA1, 50 g ae/ha
Procedure: as §1, §2, §3, §4
(§7) Field trials were conducted using standard herbicide small plot research methodology. Plots varied from 3×3.3 meter (m) to 4.5×10 m (width×length) with 4 replicates per treatment. The crops used in the field trials were grown using normal cultural practices for land preparation, fertilization, seeding and maintenance to ensure good growth of the crop and the weeds.
(§8) All treatments in the field trials were applied using either pressurized air or carbon dioxide (CO2) backpack or bicycle sprayers calibrated to apply 100-187 L/ha spray volume. Flat Fan spray nozzles were used in all trials, with water as the diluent applied at 275-300 kilopascals (kPa). Weed sizes at application ranged from 10 to 40 cm tall. […]

[6] = test system: Abutilon theophrasti (velvetleaf, ABUTH); experiment: as above; conditions: 14DAA1, 100 g ae/ha
Procedure: as §1, §2, §3, §4, §7, §8

[7] = test system: Chenopodium album (common lambsquarters, CHEAL); experiment: Postemergence herbicidal weed control, fluroxypyr-meptyl and cloransulam-methyl, field trials (Table 2)
Procedure: as §1, §2, §3, §4, §7
All treatments in the field trials were applied using either pressurized air or carbon dioxide (CO2) backpack or bicycle sprayers calibrated to apply 100-187 L/ha spray volume. Flat Fan spray nozzles were used in all trials, with water as the diluent applied at 275-300 kilopascals (kPa). Weed sizes at application ranged from 10 to 40 cm tall. Commercially available products of fluroxypyr-meptyl (STARANE™, 180 and 333 g ae/L EC), diclosulam (SPIDER® 84WG), and thifensulfuron-methyl (HARMONY® 75WG) were mixed in water at appropriately formulated product rates to achieve the desired rates based on a unit area of application (hectare) to achieve the desired rates as shown. No adjuvants were tank-mixed with any treatments applied in the field trials. […] Visual weed control was scored on a scale of 0 to 100 percent where 0 corresponds to no injury and 100 corresponds to complete kill. […]

[8] = test system: Abutilon theophrasti (velvetleaf, ABUTH); experiment: as above
Procedure: as §1, §2, §3, §4, §7
(§9) All treatments in the field trials were applied using either pressurized air or carbon dioxide (CO2) backpack or bicycle sprayers calibrated to apply 100-187 L/ha spray volume. Flat Fan spray nozzles were used in all trials, with water as the diluent applied at 275-300 kilopascals (kPa). Weed sizes at application ranged from 10 to 40 cm tall. Commercially available products of fluroxypyr-meptyl (STARANE™, 180 and 333 g ae/L EC), diclosulam (SPIDER® 84WG), and thifensulfuron-methyl (HARMONY® 75WG) were mixed in water at appropriately formulated product rates to achieve the desired rates based on a unit area of application (hectare) to achieve the desired rates as shown. No adjuvants were tank-mixed with any treatments applied in the field trials. Treatments were rated at 14-26 days after application as compared to the untreated control plants. […]

[9] = test system: Amaranthus rudis Sauer (common waterhemp, AMATA); experiment: as above
Procedure: as §1, §2, §3, §4, §7, §9

## CCCCCCC(C)OC(=O)COc1nc(F)c(Cl)c(N)c1Cl (stereo not shown) [Fluroxypyr-meptyl, fluroxypyr-methylheptyl ester]
[1]
  Fluroxypyr-meptyl Mean % weed control: 30.0%
[2]; 14DAA1, 25 g ae/ha
  Fluroxypyr-meptyl Mean % weed control: 70.0%
[2]; 21DAA1, 25 g ae/ha
  Fluroxypyr-meptyl Mean % weed control: 72.5%
[3]; 8DAA1, 50 g ae/ha
  Fluroxypyr-meptyl Mean % weed control: 60.0%
[3]; 14DAA1, 50 g ae/ha
  Fluroxypyr-meptyl Mean % weed control: 43.8%
[3]; 14DAA1, 100 g ae/ha
  Fluroxypyr-meptyl Mean % weed control: 37.5%
[3]; 21DAA1, 50 g ae/ha
  Fluroxypyr-meptyl Mean % weed control: 37.5%
[3]; 21DAA1, 100 g ae/ha
  Fluroxypyr-meptyl Mean % weed control: 38.8%
[4]; 8DAA1, 50 g ae/ha
  Fluroxypyr-meptyl Mean % weed control: 43.3%
[4]; 14DAA1, 50 g ae/ha
  Fluroxypyr-meptyl Mean % weed control: 20.0%
[4]; 21DAA1, 50 g ae/ha
  Fluroxypyr-meptyl Mean % weed control: 18.3%
[4]; 21DAA1, 100 g ae/ha
  Fluroxypyr-meptyl Mean % weed control: 21.0%
[5]
  Fluroxypyr-meptyl Mean % weed control: 48.8%
[6]
  Fluroxypyr-meptyl Mean % weed control: 80.8%
[7]; 8DAA1, 25 g ae/ha
  Fluroxypyr-meptyl Mean % weed control: 33.3%
[7]; 14DAA1, 25 g ae/ha
  Fluroxypyr-meptyl Mean % weed control: 10.0%
[7]; 14DAA1, 100 g ae/ha
  Fluroxypyr-meptyl Mean % weed control: 33.3%
[7]; 21DAA1, 25 g ae/ha
  Fluroxypyr-meptyl Mean % weed control: 18.3%
[7]; 21DAA1, 50 g ae/ha
  Fluroxypyr-meptyl Mean % weed control: 18.3%
[7]; 21DAA1, 100 g ae/ha
  Fluroxypyr-meptyl Mean % weed control: 21.0%
[8]; 14DAA1, 25 g ae/ha
  Fluroxypyr-meptyl Mean % weed control: 68.3% and 70.0%
[8]; 21DAA1, 25 g ae/ha
  Fluroxypyr-meptyl Mean % weed control: 71.7% and 72.5%
[9]; 8DAA1, 25 g ae/ha
  Fluroxypyr-meptyl Mean % weed control: 42.5%
[9]; 14DAA1, 25 g ae/ha
  Fluroxypyr-meptyl Mean % weed control: 21.3%
[9]; 21DAA1, 25 g ae/ha
  Fluroxypyr-meptyl Mean % weed control: 22.5%
